The structures appear in SMILES notation. Some results are limits rather than exact numbers.

As for `O=C(NCCc1ccc(O)cc1)c1ccc2n1Cc1ccccc1N(C(=O)CSc1ccc(Br)cc1)C2`, the melting point – broadly, the temperature, or range, at which the solid turns liquid – was 168 to 169 °C.

For the molecule `O=C1c2c(Cl)cccc2-n2cnc(-c3noc(CN(Cc4ccccc4)Cc4ccccc4)n3)c2[C@@H]2CCCN12`, the melting point is 107 to 109 °C. Turning to `CCCCOc1c(N(C)C(=O)OC(C)(C)C)n(CC(C)C)c(=O)c2ccc(-c3cnco3)cc12`, the melting point lay in the range of 152 to 153 °C. For `Cc1nc(-c2ccc([N+](=O)[O-])cc2)c[nH]1`, the melting point was in the range of 216 to 219 °C. For the molecule `CC1(C)CC(N2C(=O)c3ccc(C(=O)O)cc3C2=O)CC(C)(C)N1`, the melting point is > 225 °C.

For `O=[N+]([O-])c1ccc(NN=C(c2ccccc2)c2ccc(O)cc2)c([N+](=O)[O-])c1`, the melting point fell in the range of 224 to 225 °C. As for `CC(C)(C)C(F)(F)c1ccc(C(N)=O)cc1`, the melting point lay in the range of 128 to 132 °C. Molecule `Cn1cccc1CC(=O)O` yielded a melting point of 97 to 100 °C. On to `COC(=O)CNc1ccc(CNC(=O)C2Cc3ccccc3N2S(=O)(=O)c2ccc(-c3cccc(C(F)(F)F)c3)cc2)cc1` (configuration not stated), for which the melting point came to 85 °C. Take `COc1ccc(-c2nc(-c3ncc4c(n3)CCCC4)ccc2C)nc1`: the melting point was 157 to 158 °C.

On to `Cc1nc(-c2ccccc2)nc(-c2cccc([N+](=O)[O-])c2)c1C(=O)O`, for which the melting point is 208 to 209 °C. The result for `Cc1cc(CC(O)CN2C(=O)CCC2=O)cc(C(C)(C)C)c1O` (configuration not stated) reads 218 °C. The result for `OC[C@H]1O[C@@H](n2cnc3c(NC4CCOC4)ncnc32)[C@@H](O)[C@H]1O` (some centres not stated) reads 128 to 130 °C. Consider `O=C(CCCc1ccccc1)NCc1ccc(C(=O)O)cc1`, for which the melting point lay within 178 to 179 °C. In the case of `CC(C)(C)OC(=O)CN1C(=O)[C@@H](NC(=O)OC(C)(C)C)CCc2ccccc21` it was 145 to 147 °C; in that of `OCc1cnc(Cl)cc1Cl`, 73 to 77 °C.

Regarding `CN(C)c1c(S(=O)(=O)C(F)(F)F)c(C#N)nn1-c1c(Cl)cc(C(F)(F)F)cc1Cl`, the melting point lay in the range of 178 to 179 °C. Take `Cc1sc(CO)cc1CC#N`: the melting point was in the range of 66 to 68 °C. As for `CN(C)S(=O)(=O)c1cccc2c1Sc1ccc(OCc3ccccc3)cc1N2CCCCl`, the melting point fell in the range of 124 to 126 °C. In turn, `Nc1nc(-c2cc(Cl)ccc2Cl)nc(N2CC(CO)C2)n1` came in with a melting point of 224 to 226 °C. In the case of `CC(C)(C)C(O)(C=Cc1ccc(Cl)cc1)Cn1cncn1` (configuration not stated) it was 81 to 83.5 °C. In the case of `Cc1cc2c(-c3cccnc3)c(CC(=O)O)c(=O)oc2cc1Cl` it was 279 to 281 °C; in that of `CCOC(=O)C1=C(C)NC(CO)=C(C(=O)OCC)C1c1cccc(O)c1` (configuration not stated), 162 to 163 °C; in that of `CCCNc1c(NCCCOc2cccc(CN3CCCCC3)c2)c(=O)c1=O`, 158 to 160 °C. In turn, `C#CCN(C(C)C)S(=O)(=O)NC(=O)c1cc(-n2c(=O)cc(C(F)(F)F)n(C)c2=S)c(F)cc1Cl` had a melting point of 94 to 105 °C. The molecule `O=c1c(-c2ccccc2)ccc2n1CCc1ccccc1-2` gave a melting point of 140 °C.

Regarding `Cn1c(C#N)ccc1-c1ccc2c(c1)C(C)(c1cccs1)OCC(=O)N2` (configuration not stated), the melting point lay within 197 to 198 °C.

The molecule `CCOC(=O)C(C(=O)OCC)c1ccc(OCc2ccccc2)cc1` came in with a melting point of 65 to 66 °C. The molecule `COC(=O)c1cccc(C=C(C)[N+](=O)[O-])c1O` yielded a melting point of 119 to 121 °C. As to `COC(=O)C(Cc1ccc(Cl)cc1Cl)c1ccccc1Cl` (configuration not stated), the melting point is 67.9 °C. In the case of `CCOC(=O)c1c(C)nsc1NC(=O)NC(C)C` it was 175 to 176 °C. Take `CN1CCN(c2ccccc2C2=NC(C)(C)CO2)C(c2cccs2)C1` (configuration not stated): the melting point lay in the range of 114 to 115 °C.

Molecule `CCC(C)C(NS(=O)c1ccc(C)cc1)C1(C(=O)NC)SCCS1` (configuration not stated) came in with a melting point of 147 to 154 °C. The result for `CCOC(=O)c1cn(N)c2cc3c(cc2c1=O)OCO3` reads 251 to 253 °C. `CC(=O)OC1CC2(CCN(CCCC(=O)c3ccc(F)cc3)C2)c2ccccc21` (configuration not stated) registered a melting point of 154 to 156 °C. Molecule `COc1c(N2CCC(n3cncn3)C2)c(F)cc2c(=O)c(C(=O)O)cn(C3CC3)c12` (configuration not stated) returned a melting point of 221 to 222 °C. In the case of `CCC(NC(=NC#N)Nc1cccnc1)c1ccccc1` (configuration not stated) it was 155 to 156 °C; in that of `COc1ccc(CCc2cc3c(s2)NC(=S)CN=C3c2ccccc2Cl)cc1`, 185 to 186 °C; in that of `O=C1CCC(c2cccc(Cl)c2)(c2cccc(Cl)c2)[C@@H]2CN(C(=O)Cc3ccccc3)C[C@H]12` (racemic), 160 °C.

Consider `COc1ccc(CSc2ccc([N+](=O)[O-])cc2CBr)cc1`, for which the melting point lay in the range of 98 to 99 °C. `O=C(NCCCBr)c1cnn(-c2nc(-c3cccc(C(F)(F)F)c3)cs2)c1C(F)(F)F` came in with a melting point of 187 to 190 °C. On to `OC1(C#Cc2cccc(Cl)c2)CCNC1` (configuration not stated), for which the melting point lay within 153 to 160 °C. Consider `Clc1ccc(Nc2cncc(-n3cc4ccccc4n3)n2)cc1`, for which the melting point was 249 to 252 °C. The molecule `FC(F)(F)c1cc(Cl)c(-n2cc(C3CC3(Cl)Cl)nn2)c(Cl)c1` (configuration not stated) returned a melting point of 134 to 136 °C. The molecule `Cc1c(S(=O)(=O)c2ccc(=O)[nH]n2)sc2ccc(Cl)cc12` showed a melting point of 258 to 259 °C. Regarding `CN1CC=C(c2c[nH]c3ccc(NS(=O)(=O)c4cccc5ccccc45)cc23)CC1`, the melting point is 244 to 245 °C. Consider `CNc1cc(NC)cc(C(O)CS(C)(=O)=O)c1` (configuration not stated), for which the melting point was found to be 106 °C.

Regarding `CC(=O)c1ccc(-c2ccc(F)cc2Cl)c([N+](=O)[O-])c1`, the melting point lay within 93 to 95 °C. Molecule `O=C(CCC1CCCCC1)NC1N=C(c2ccccc2)c2ccccc2NC1=NO` (configuration not stated) showed a melting point of 196 °C. As for `CC(=O)Oc1ccc(-c2ccc(F)cc2)cc1C(=O)O`, the melting point lay within 134 to 137 °C.

For `CC(=O)OC1CC2=CCC3C4CCC(C(C)CCCC(C)C)C4(C)CCC3C2(C)C(OC(C)=O)C1OC(C)=O` (configuration not stated), the melting point was in the range of 109 to 110 °C. In the case of `CC(C)n1nc(-c2cnc(N)nc2-c2ccccc2F)ccc1=O` it was 239 to 240 °C; in that of `CC1=C(C)C(=O)N(C(=O)NCCc2ccc(S(=O)(=O)NC(=O)NC3CCCCC3)cc2)C1`, 189 to 190 °C.

On to `O=C(O)CN1C(=O)C2C3C=CC(CC3)C2C1=O` (configuration not stated), for which the melting point turned out to be 142 °C. On to `O=C1N(Cc2ccccn2)c2cccc(Br)c2C1(O)c1cc2c(cc1O)OCC2` (configuration not stated), for which the melting point was > 225 °C. The molecule `CCN(Cc1ccccc1Oc1ccccc1)c1ccc(C(=O)O)cn1` had a melting point of 170 to 172 °C. The molecule `COC(=O)CN1C(=O)CN=C(c2ccccc2Cl)c2cc(Cl)ccc21` had a melting point of 193 to 194 °C. In turn, `O=C(O)c1cc(-n2c(-c3ccccc3)cc3c2-c2ccccc2CC3)ccc1O` registered a melting point of 215 to 218 °C. On to `Cc1c(CCc2ccccc2)c(=O)oc2cc(O)cc(O)c12`, for which the melting point lay within 248 to 252 °C. `CCOC(=O)c1ccc(NC(=O)OC(C)(C)C)nn1` registered a melting point of 87 to 88 °C. In the case of `COc1cc(N2CCN(C[C@@H](O)CO)CC2)ccc1Nc1ncc2ccc(-c3ccccc3OC)n2n1` it was 83 to 90 °C. In the case of `CCCc1nc2c(N)nc3ccc(-c4ccccc4CO)cc3c2s1`, the melting point was in the range of 194 to 196 °C.

These data come from a melting point compilation (Tetko et al.; mined from patent text by program, amines drawn as free bases though some values may be those of a salt).
